{"source": "paper PMC11864979", "about": "“First-in-class ultralong-target-residence-time p38α inhibitors as a mitosis-targeted therapy for colorectal cancer” (Nature Cancer, 2025)", "assay_in_all_cases": "selectivity profiling in a panel of 340 wild-type kinases (Reaction Biology Europe)", "format_in_all_cases": "binding", "key": {"340 wild-type kinases [1]": {"target": "T1, 340 wild-type kinases (Homo sapiens, UniProt P11802)", "T1 construct": "purchased Reaction Biology Europe", "T1 sequence (P11802 whole entry)": "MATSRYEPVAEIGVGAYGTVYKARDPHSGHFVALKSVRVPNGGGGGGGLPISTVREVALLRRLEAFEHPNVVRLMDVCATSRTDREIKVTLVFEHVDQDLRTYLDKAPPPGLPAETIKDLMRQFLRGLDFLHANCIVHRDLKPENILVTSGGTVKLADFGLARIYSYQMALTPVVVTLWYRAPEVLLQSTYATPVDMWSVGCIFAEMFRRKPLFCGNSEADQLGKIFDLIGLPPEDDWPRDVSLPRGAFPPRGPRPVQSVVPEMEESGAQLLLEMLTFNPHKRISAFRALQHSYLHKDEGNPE", "settings": "CDK4/CycD1; 1 µM; read-out: residual activity", "text": "(§1) Potential interactions between 2015 and 340 wild-type kinases were checked by means of a competition binding assay performed by Reaction Biology Europe (Supplementary Table 15)."}, "340 wild-type kinases [2]": {"target": "T2, 340 wild-type kinases (Homo sapiens, UniProt Q8NG66)", "T2 construct": "purchased Reaction Biology Europe", "T2 sequence (Q8NG66 1-645)": "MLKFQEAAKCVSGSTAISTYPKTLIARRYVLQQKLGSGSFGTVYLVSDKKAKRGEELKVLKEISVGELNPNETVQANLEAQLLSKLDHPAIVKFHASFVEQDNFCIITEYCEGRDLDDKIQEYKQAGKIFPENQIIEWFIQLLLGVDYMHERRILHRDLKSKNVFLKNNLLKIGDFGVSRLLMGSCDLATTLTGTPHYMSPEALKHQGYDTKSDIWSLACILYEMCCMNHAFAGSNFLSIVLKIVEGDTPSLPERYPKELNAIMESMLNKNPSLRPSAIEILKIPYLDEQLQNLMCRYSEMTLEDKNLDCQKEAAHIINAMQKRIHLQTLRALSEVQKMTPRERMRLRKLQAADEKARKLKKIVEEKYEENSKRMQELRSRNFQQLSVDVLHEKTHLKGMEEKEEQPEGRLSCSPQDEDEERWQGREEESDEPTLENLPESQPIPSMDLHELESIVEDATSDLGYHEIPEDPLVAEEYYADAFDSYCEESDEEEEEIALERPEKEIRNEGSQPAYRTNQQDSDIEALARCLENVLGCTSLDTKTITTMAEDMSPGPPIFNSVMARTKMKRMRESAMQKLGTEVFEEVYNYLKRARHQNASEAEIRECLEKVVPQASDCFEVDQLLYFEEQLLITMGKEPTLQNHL", "settings": "0.2 µM 2015; read-out: NEK11 residual activity", "text": "as §1"}, "340 wild-type kinases [3]": {"target": "T3, 340 wild-type kinases (Homo sapiens, UniProt Q9HAZ1)", "T3 construct": "purchased Reaction Biology Europe", "T3 sequence (Q9HAZ1 whole entry)": "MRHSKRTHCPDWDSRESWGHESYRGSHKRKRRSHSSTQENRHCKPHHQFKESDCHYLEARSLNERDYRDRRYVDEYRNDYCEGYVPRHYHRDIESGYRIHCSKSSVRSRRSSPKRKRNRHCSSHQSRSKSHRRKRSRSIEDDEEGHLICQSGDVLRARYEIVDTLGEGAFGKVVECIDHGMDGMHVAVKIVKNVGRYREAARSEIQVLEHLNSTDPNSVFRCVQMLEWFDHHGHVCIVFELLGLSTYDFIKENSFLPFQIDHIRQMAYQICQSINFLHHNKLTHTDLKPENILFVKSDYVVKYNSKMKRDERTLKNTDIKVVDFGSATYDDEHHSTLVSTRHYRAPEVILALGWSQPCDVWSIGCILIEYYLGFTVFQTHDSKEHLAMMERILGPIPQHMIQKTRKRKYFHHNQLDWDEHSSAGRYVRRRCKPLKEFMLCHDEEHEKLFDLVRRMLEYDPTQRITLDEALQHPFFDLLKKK", "settings": "1 µM 2015; read-out: CLK4 residual activity", "text": "as §1"}, "340 wild-type kinases [4]": {"target": "T4, 340 wild-type kinases (Homo sapiens, UniProt Q9NZJ5)", "T4 construct": "purchased Reaction Biology Europe", "T4 sequence (Q9NZJ5 30-1116)": "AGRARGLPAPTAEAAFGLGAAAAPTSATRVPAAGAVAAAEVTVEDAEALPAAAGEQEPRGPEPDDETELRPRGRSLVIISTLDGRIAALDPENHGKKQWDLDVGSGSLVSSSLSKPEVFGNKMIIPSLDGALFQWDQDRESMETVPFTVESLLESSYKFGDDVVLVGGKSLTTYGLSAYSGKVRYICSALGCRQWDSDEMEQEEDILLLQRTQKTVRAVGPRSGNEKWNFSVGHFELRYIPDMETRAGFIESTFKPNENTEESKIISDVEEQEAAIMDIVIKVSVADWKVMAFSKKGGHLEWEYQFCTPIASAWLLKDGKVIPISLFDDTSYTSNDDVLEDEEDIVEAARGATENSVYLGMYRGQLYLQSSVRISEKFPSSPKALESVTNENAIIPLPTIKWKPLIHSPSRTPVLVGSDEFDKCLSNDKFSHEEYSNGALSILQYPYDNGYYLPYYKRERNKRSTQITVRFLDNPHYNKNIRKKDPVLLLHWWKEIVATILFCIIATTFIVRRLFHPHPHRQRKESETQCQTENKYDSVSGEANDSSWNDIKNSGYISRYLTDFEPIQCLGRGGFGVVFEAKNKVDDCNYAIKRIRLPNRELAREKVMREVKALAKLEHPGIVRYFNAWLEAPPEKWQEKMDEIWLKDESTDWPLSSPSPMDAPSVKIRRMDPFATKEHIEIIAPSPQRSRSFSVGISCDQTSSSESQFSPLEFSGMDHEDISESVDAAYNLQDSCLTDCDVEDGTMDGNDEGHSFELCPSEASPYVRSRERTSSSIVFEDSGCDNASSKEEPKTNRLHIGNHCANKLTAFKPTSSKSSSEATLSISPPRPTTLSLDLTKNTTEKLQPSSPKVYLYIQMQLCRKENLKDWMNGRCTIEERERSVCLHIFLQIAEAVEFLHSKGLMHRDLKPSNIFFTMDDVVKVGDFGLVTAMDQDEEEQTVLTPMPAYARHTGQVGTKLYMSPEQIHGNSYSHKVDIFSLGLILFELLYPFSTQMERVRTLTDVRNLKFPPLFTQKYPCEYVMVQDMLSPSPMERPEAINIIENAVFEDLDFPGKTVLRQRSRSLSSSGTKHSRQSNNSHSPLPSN", "settings": "0.2 µM 2015; read-out: EIF2AK3 residual activity", "text": "as §1"}, "340 wild-type kinases [5]": {"target": "T5, 340 wild-type kinases (Homo sapiens, UniProt O75582)", "T5 construct": "purchased Reaction Biology Europe", "T5 sequence (O75582 whole entry)": "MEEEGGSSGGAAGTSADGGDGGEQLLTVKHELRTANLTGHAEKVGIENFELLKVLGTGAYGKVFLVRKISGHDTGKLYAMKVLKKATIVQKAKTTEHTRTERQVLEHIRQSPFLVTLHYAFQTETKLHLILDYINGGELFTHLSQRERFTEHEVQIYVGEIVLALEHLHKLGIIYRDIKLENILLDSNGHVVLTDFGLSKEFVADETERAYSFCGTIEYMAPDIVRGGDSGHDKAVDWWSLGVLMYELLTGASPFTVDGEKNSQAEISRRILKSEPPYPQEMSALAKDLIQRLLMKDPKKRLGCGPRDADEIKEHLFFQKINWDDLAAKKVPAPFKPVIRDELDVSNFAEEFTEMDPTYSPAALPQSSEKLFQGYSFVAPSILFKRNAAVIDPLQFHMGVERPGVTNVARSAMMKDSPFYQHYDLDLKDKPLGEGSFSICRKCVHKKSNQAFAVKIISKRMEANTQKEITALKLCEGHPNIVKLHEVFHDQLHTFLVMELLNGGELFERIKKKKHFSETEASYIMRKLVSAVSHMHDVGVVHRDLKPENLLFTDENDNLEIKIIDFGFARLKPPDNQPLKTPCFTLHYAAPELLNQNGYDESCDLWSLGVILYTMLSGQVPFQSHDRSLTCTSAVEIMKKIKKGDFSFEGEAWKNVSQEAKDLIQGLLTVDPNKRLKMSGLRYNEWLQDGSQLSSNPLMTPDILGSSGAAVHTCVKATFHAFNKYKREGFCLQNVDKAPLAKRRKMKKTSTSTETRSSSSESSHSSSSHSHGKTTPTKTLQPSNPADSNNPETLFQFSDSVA", "settings": "1 µM 2015; read-out: RPS6KA5 residual activity", "text": "as §1"}, "340 wild-type kinases [6]": {"target": "T6, 340 wild-type kinases (Homo sapiens, UniProt P48729)", "T6 construct": "purchased Reaction Biology Europe", "T6 sequence (P48729 whole entry)": "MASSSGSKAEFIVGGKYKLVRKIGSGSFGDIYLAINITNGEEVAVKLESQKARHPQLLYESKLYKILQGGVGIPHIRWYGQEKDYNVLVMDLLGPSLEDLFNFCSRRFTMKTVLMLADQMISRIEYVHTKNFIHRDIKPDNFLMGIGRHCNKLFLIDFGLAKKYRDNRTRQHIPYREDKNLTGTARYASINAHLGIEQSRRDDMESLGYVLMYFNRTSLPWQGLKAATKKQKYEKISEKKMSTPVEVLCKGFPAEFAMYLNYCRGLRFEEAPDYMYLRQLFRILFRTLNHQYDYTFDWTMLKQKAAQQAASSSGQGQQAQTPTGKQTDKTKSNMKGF", "settings": "1 µM 2015; read-out: CK1alpha1 residual activity", "text": "as §1"}, "340 wild-type kinases [7]": {"target": "T7, 340 wild-type kinases (Homo sapiens, UniProt P27361)", "T7 construct": "purchased Reaction Biology Europe", "T7 sequence (P27361 whole entry)": "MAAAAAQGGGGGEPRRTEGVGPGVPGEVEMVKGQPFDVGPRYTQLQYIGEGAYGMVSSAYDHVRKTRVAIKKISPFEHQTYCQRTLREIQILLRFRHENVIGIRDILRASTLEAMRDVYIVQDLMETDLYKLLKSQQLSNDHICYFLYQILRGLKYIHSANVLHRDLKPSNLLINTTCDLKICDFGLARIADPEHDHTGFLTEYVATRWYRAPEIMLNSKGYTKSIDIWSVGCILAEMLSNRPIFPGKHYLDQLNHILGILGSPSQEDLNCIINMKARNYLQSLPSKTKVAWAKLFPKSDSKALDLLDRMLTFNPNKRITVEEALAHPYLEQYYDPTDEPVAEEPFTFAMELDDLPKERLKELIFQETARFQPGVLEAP", "settings": "0.2 µM 2015; read-out: ERK1 residual activity", "text": "as §1"}, "340 wild-type kinases [8]": {"target": "T8, 340 wild-type kinases (Homo sapiens, UniProt P36896)", "T8 construct": "purchased Reaction Biology Europe", "T8 sequence (P36896 24-505)": "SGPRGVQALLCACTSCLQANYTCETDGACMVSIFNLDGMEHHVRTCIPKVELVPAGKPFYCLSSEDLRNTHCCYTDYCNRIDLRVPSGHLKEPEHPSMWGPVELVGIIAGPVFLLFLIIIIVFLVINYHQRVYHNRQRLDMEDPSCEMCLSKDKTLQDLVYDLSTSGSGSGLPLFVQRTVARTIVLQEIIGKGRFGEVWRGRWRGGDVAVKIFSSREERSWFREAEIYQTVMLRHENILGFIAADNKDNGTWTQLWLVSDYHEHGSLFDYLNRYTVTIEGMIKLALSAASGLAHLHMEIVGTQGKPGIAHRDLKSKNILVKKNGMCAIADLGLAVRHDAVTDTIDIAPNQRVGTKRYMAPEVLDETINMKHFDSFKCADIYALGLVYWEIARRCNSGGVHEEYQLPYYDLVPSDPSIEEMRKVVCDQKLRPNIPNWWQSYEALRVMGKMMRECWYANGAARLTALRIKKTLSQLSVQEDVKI", "settings": "1 µM 2015; read-out: ACVR1B residual activity", "text": "as §1"}}}
{"smiles": "CNC(=O)c1ccc2c(c1)C(=O)c1ccc(Nc3ccc(F)c(NC(=O)C4CC4)c3)cc1CC2", "note": "[Compound 2015]", "values": [{"measurement": "remaining activity at 1 µM", "setting": "340 wild-type kinases [1]", "result": 98.4, "unit": "%"}, {"measurement": "remaining activity at 0.2 µM", "setting": "340 wild-type kinases [2]", "result": 91.3, "unit": "%"}, {"measurement": "remaining activity at 1 µM", "setting": "340 wild-type kinases [3]", "result": 118, "unit": "%"}, {"measurement": "remaining activity at 0.2 µM", "setting": "340 wild-type kinases [4]", "result": 93.3, "unit": "%"}, {"measurement": "remaining activity at 1 µM", "setting": "340 wild-type kinases [5]", "result": 90.2, "unit": "%"}, {"measurement": "remaining activity at 1 µM", "setting": "340 wild-type kinases [6]", "result": 94.9, "unit": "%"}, {"measurement": "remaining activity at 0.2 µM", "setting": "340 wild-type kinases [7]", "result": 108, "unit": "%"}, {"measurement": "remaining activity at 1 µM", "setting": "340 wild-type kinases [8]", "result": 86.1, "unit": "%"}]}
